{
  "source": "DBAASP",
  "test_in_all_cases": "≥ marks a high value that may be exact or a test limit, other limits are often not marked, values filed in µg/mL are converted to µM",
  "key": {"[1]": {"test_system": "Pseudomonas aeruginosa ATCC 27853"}, "[2]": {"test_system": "Klebsiella pneumoniae KCTC 2208"}, "[3]": {"test_system": "Acinetobacter baumannii KCTC 2508"}, "[4]": {"test_system": "Bacillus subtilis ATCC 23857"}, "Candida albicans": {"test_system": "Candida albicans"}, "[5]": {"test_system": "Escherichia coli ATCC 25922"}, "[6]": {"test_system": "Cronobacter sakazakii ATCC 29544"}, "[7]": {"test_system": "Staphylococcus aureus ATCC 25923"}, "[8]": {"test_system": "Candida glabrata ATCC 2001"}, "[9]": {"test_system": "Candida tropicalis ATCC 750"}, "[10]": {"test_system": "Staphylococcus aureus ATCC 29213"}, "Candida glabrata": {"test_system": "Candida glabrata"}, "Candida krusei ATCC 6258": {"test_system": "Candida krusei ATCC 6258"}, "Escherichia coli ML-35": {"test_system": "Escherichia coli ML-35"}, "[11]": {"test_system": "Candida albicans ATCC 14053"}, "[12]": {"test_system": "Bacillus subtilis CCT 2576"}, "[13]": {"test_system": "Klebsiella pneumoniae ATCC 700603"}, "[14]": {"test_system": "Escherichia coli ATCC 43827"}, "[15]": {"test_system": "Pseudomonas aeruginosa ATCC 15422"}, "[16]": {"test_system": "Staphylococcus epidermidis ATCC 12228"}, "[17]": {"test_system": "Staphylococcus aureus ATCC 6538"}, "[18]": {"test_system": "Klebsiella pneumoniae ATCC BAA-2146"}, "[19]": {"test_system": "Cryptococcus neoformans ATCC 208821"}, "[20]": {"test_system": "Candida albicans ATCC 90028"}, "[21]": {"test_system": "Staphylococcus aureus ATCC 43300"}, "Pseudomonas aeruginosa": {"test_system": "Pseudomonas aeruginosa"}, "[22]": {"test_system": "Klebsiella pneumoniae ATCC 13883"}, "[23]": {"test_system": "Acinetobacter baumannii ATCC 19606"}, "Klebsiella pneumoniae": {"test_system": "Klebsiella pneumoniae"}, "Acinetobacter baumannii": {"test_system": "Acinetobacter baumannii"}, "[24]": {"test_system": "Bacillus subtilis ATCC 6051"}, "[25]": {"test_system": "Pseudomonas aeruginosa H1001"}, "[26]": {"test_system": "Escherichia coli ATCC 8739"}},
  "note": "Where “and” joins values, the source holds several entries; their conditions need not be identical. Equal values may be shown once.",
  "data": [
    {"smiles": "CC[C@H](C)[C@H](N)C(=O)N[C@@H](C)C(=O)N[C@@H](CCCN=C(N)N)C(=O)N[C@@H](CCCN=C(N)N)C(=O)N[C@@H](C)C(=O)N[C@@H](CC(C)C)C(=O)N[C@@H](CCCCN)C(=O)N[C@@H](CCCCN)C(=O)N[C@@H](C)C(=O)N[C@@H](CCCCN)C(=O)N[C@@H](CCCN=C(N)N)C(=O)N[C@@H](C)C(=O)N[C@@H](C)C(=O)N[C@@H](Cc1cnc[nH]1)C(=O)N[C@@H](CCCCN)C(=O)N[C@H](C(=O)N1CCC[C@H]1C(=O)N[C@@H](C)C(=O)N[C@@H](C)C(=O)N[C@@H](CCCCN)C(=O)N[C@@H](CCCCN)C(=O)N[C@@H](Cc1ccccc1)C(=O)NCC(=O)N[C@@H](CCCN=C(N)N)C(=O)N[C@@H](CCCN=C(N)N)C(N)=O)[C@@H](C)CC", "note": "[IARRALKKAKRAAHKIPAAKKFGRR]", "values": [
      {"measurement": "MIC", "setting": "[1]", "value": 16, "unit": "µM"},
      {"measurement": "MIC", "setting": "[2]", "value": 2, "unit": "µM"},
      {"measurement": "MIC", "setting": "[3]", "value": 8, "unit": "µM"}
    ]},
    {"smiles": "CC[C@H](C)[C@H](N)C(=O)N[C@@H](C)C(=O)N[C@@H](CCCN=C(N)N)C(=O)N[C@@H](CCCN=C(N)N)C(=O)N[C@@H](C)C(=O)N[C@@H](CC(C)C)C(=O)N[C@@H](CCCCN)C(=O)N[C@@H](CCCCN)C(=O)N[C@@H](C)C(=O)N[C@@H](CCCCN)C(=O)N[C@@H](CCCN=C(N)N)C(=O)N[C@@H](C)C(=O)N[C@@H](C)C(=O)N[C@@H](Cc1cnc[nH]1)C(=O)N[C@@H](CCCCN)C(=O)N[C@H](C(=O)N1CCC[C@H]1C(=O)N[C@@H](C)C(=O)N[C@@H](CS)C(=O)N[C@@H](CCCCN)C(=O)N[C@@H](CCCCN)C(=O)N[C@@H](Cc1ccccc1)C(=O)NCC(=O)N[C@@H](CCCN=C(N)N)C(=O)N[C@@H](CCCN=C(N)N)C(N)=O)[C@@H](C)CC", "note": "[IARRALKKAKRAAHKIPACKKFGRR]", "values": [
      {"measurement": "MIC", "setting": "[1]", "value": 2, "unit": "µM"},
      {"measurement": "MIC", "setting": "[2]", "value": 8, "unit": "µM"},
      {"measurement": "MIC", "setting": "[3]", "value": 16, "unit": "µM"}
    ]},
    {"smiles": "CC[C@H](C)[C@H](N)C(=O)N[C@@H](CC(C)C)C(=O)NCC(=O)N[C@H](C(=O)N[C@H](C(=O)N[C@@H](CC(C)C)C(=O)NCC(=O)N[C@@H](CC(C)C)C(=O)N[C@@H](CC(C)C)C(=O)N[C@@H](CCCCN)C(=O)N[C@@H](CO)C(=O)N[C@@H](CC(C)C)C(N)=O)[C@@H](C)CC)[C@@H](C)O", "note": "[ILGTILGLLKSL]", "values": [
      {"measurement": "MIC", "setting": "[4]", "value": 4, "unit": "µM"},
      {"measurement": "MIC", "setting": "Candida albicans", "value": 22.6, "unit": "µM"},
      {"measurement": "MIC", "setting": "[5]", "value": 32, "unit": "µM"},
      {"measurement": "MIC", "setting": "[6]", "value": "≥ 64", "unit": "µM"},
      {"measurement": "MIC", "setting": "[7]", "value": 8, "unit": "µM"},
      {"measurement": "MIC", "setting": "[8]", "value": 16, "unit": "µM"},
      {"measurement": "MIC", "setting": "[9]", "value": 4, "unit": "µM"},
      {"measurement": "MIC", "setting": "[10]", "value": 4, "unit": "µM"},
      {"measurement": "MIC", "setting": "Candida glabrata", "value": 16, "unit": "µM"},
      {"measurement": "MIC", "setting": "Candida krusei ATCC 6258", "value": "≥ 32", "unit": "µM"},
      {"measurement": "MIC", "setting": "Escherichia coli ML-35", "value": "≥ 64", "unit": "µM"},
      {"measurement": "MIC", "setting": "[11]", "value": 16, "unit": "µM"},
      {"measurement": "MIC", "setting": "[12]", "value": 12.1, "unit": "µM"},
      {"measurement": "MIC", "setting": "[13]", "value": 128, "unit": "µM"},
      {"measurement": "MIC", "setting": "[14]", "value": "≥ 32", "unit": "µM"},
      {"measurement": "MIC", "setting": "[15]", "value": "≥ 202", "unit": "µM"},
      {"measurement": "MIC", "setting": "[16]", "value": "8 µM and > 4 µM"},
      {"measurement": "MIC", "setting": "[17]", "value": 12.1, "unit": "µM"}
    ]},
    {"smiles": "CC[C@H](C)[C@@H]1NC(=O)CNC(=O)[C@H](CCCN=C(N)N)NC(=O)[C@H](C)NC(=O)[C@@H]2CSSC[C@H](NC1=O)C(=O)N[C@@H](Cc1ccc(O)cc1)C(=O)N[C@@H](CCCN=C(N)N)C(=O)N[C@@H](CCCN=C(N)N)C(=O)N[C@H](C(=O)N[C@@H](CCCN=C(N)N)C(=O)O)CSSC[C@H](NC(=O)[C@H](Cc1c[nH]c3ccccc13)NC(=O)[C@@H](N)CCCCN)C(=O)N[C@@H](Cc1ccccc1)C(=O)N[C@@H](CCCN=C(N)N)C(=O)N[C@@H](C(C)C)C(=O)N2", "note": "[KWCFRVCARGICYRRCR]", "values": [
      {"measurement": "MIC", "setting": "[18]", "value": 0.23, "unit": "µM"},
      {"measurement": "MIC", "setting": "[19]", "value": 0.23, "unit": "µM"},
      {"measurement": "MIC", "setting": "[1]", "value": 0.459, "unit": "µM"},
      {"measurement": "MIC", "setting": "[20]", "value": 3.68, "unit": "µM"},
      {"measurement": "MIC", "setting": "[21]", "value": 1.84, "unit": "µM"},
      {"measurement": "MIC", "setting": "Pseudomonas aeruginosa", "value": 0.919, "unit": "µM"},
      {"measurement": "MIC", "setting": "[5]", "value": 0.0276, "unit": "µM"},
      {"measurement": "MIC", "setting": "[22]", "value": 0.0574, "unit": "µM"},
      {"measurement": "MIC", "setting": "[23]", "value": 0.0574, "unit": "µM"},
      {"measurement": "MIC", "setting": "Klebsiella pneumoniae", "value": 3.68, "unit": "µM"},
      {"measurement": "MIC", "setting": "Acinetobacter baumannii", "value": 0.23, "unit": "µM"},
      {"measurement": "MIC", "setting": "[13]", "value": 0.0574, "unit": "µM"},
      {"measurement": "MIC", "setting": "[24]", "value": 0.115, "unit": "µM"}
    ]},
    {"smiles": "CC(C)[C@@H]1NC(=O)[C@H](CCCN=C(N)N)NC(=O)[C@H](Cc2ccccc2)NC(=O)[C@@H](NC(=O)[C@H](Cc2c[nH]c3ccccc23)NC(=O)[C@@H](N)CCCCN)CSSC[C@@H](C(=O)N[C@@H](CCCN=C(N)N)C(=O)O)NC(=O)[C@H](CCCN=C(N)N)NC(=O)[C@H](CCCN=C(N)N)NC(=O)[C@H](Cc2ccc(O)cc2)NC(=O)[C@@H]2CSSC[C@H](NC1=O)C(=O)N[C@@H](Cc1ccc(O)cc1)C(=O)N[C@@H](CCCN=C(N)N)C(=O)NCC(=O)N[C@@H](C)C(=O)N2", "note": "[KWCFRVCYRGACYRRCR]", "values": [
      {"measurement": "MIC", "setting": "[18]", "value": 0.112, "unit": "µM"},
      {"measurement": "MIC", "setting": "[19]", "value": 0.225, "unit": "µM"},
      {"measurement": "MIC", "setting": "[1]", "value": 0.112, "unit": "µM"},
      {"measurement": "MIC", "setting": "[20]", "value": 0.898, "unit": "µM"},
      {"measurement": "MIC", "setting": "[21]", "value": 0.898, "unit": "µM"},
      {"measurement": "MIC", "setting": "Pseudomonas aeruginosa", "value": 0.449, "unit": "µM"},
      {"measurement": "MIC", "setting": "[5]", "value": 0.0561, "unit": "µM"},
      {"measurement": "MIC", "setting": "[22]", "value": 0.112, "unit": "µM"},
      {"measurement": "MIC", "setting": "[23]", "value": 0.112, "unit": "µM"},
      {"measurement": "MIC", "setting": "Klebsiella pneumoniae", "value": 3.59, "unit": "µM"},
      {"measurement": "MIC", "setting": "Acinetobacter baumannii", "value": 0.112, "unit": "µM"},
      {"measurement": "MIC", "setting": "[13]", "value": 0.225, "unit": "µM"},
      {"measurement": "MIC", "setting": "[24]", "value": 0.0561, "unit": "µM"}
    ]},
    {"smiles": "CC[C@H](C)[C@H](NC(=O)[C@H](C)NC(=O)[C@H](CC(N)=O)NC(=O)[C@H](CCSC)NC(=O)[C@@H]1CCCN1)C(=O)N[C@@H](CCCCN)C(=O)N[C@@H](CC(C)C)C(=O)N[C@@H](CC(C)C)C(=O)N[C@@H](CS)C(=O)N[C@@H](CCCN=C(N)N)C(=O)N[C@H](C(=O)N[C@@H](Cc1cnc[nH]1)C(=O)N[C@@H](CCCCN)C(=O)N[C@@H](CCCCN)C(=O)N[C@H](C(=O)N[C@@H](C)C(=O)N[C@H](C(=O)N[C@@H](CO)C(=O)N[C@H](C(=O)O)C(C)C)[C@@H](C)CC)[C@@H](C)CC)C(C)C", "note": "[PMNAIKLLCRVHKKIAISV]", "values": [
      {"measurement": "MIC", "setting": "[25]", "value": 5.86, "unit": "µM"},
      {"measurement": "MIC", "setting": "[26]", "value": "≥ 60", "unit": "µM"}
    ]},
    {"smiles": "CC(C)C[C@H](NC(=O)[C@H](Cc1ccc(O)cc1)NC(=O)[C@@H]1CCCN1C(=O)[C@@H]1CCCN1C(=O)[C@H](CCCCN)NC(=O)[C@H](CC(=O)O)NC(=O)[C@@H](N)C(C)C)C(=O)N1CCC[C@H]1C(=O)N[C@@H](CCCN=C(N)N)C(=O)N1CCC[C@H]1C(=O)N[C@@H](CCCN=C(N)N)C(=O)N1CCC[C@H]1C(=O)N1CCC[C@H]1C(=O)N[C@@H](CCCN=C(N)N)C(=O)N[C@@H](CCCN=C(N)N)C(=O)N[C@@H](Cc1ccccc1)C(=O)N[C@@H](Cc1ccc(O)cc1)C(=O)N[C@@H](CC(N)=O)C(=O)N[C@@H](CCCN=C(N)N)C(=O)NCC(=O)O", "note": "[VDKPPYLPRPRPPRRFYNRG]", "values": [
      {"measurement": "MIC", "setting": "[25]", "value": 0.105, "unit": "µM"}
    ]}
  ]
}
